Molecular target: T1, PTP1B (truncated form, first 321 amino acids) (Homo sapiens, UniProt P18031)
T1 construct: a truncated form of PTP1B (corresponding to the first 321 amino acids); made in house; host or cells: E. coli
T1 sequence (P18031 1-321): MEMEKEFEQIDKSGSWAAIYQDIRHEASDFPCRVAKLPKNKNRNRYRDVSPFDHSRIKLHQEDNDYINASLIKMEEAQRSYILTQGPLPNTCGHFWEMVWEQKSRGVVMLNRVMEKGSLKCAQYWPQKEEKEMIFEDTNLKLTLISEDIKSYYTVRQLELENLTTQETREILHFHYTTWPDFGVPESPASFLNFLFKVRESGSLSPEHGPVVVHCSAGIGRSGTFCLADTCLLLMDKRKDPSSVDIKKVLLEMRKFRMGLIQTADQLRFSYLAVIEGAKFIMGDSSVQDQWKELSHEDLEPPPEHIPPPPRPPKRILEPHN
Experiment: Inhibition of truncated PTP1B, p-nitrophenyl phosphate substrate
Type: biochemical
Conditions: p-nitrophenyl phosphate 0.16 to 10 mM; pH 5.5; 25° C., 60 minutes
Method: The compounds are evaluated for biological activity with a truncated form of PTP1B (corresponding to the first 321 amino acids), which was expressed in E. coli and purified to apparent homogeneity using published procedures well-known to those skilled in the art. The enzyme reactions are carried out using standard conditions essentially as described by Burke et al. (Biochemistry 35; 15989-15996 (1996)). The assay conditions are as follows. Appropriate concentrations of the compounds of the invention are added to the reaction mixtures containing different concentrations of the substrate, p-nitrophenyl phosphate (range: 0.16 to 10 mM—final assay concentration). The buffer used was 100 mM sodium acetate pH 5.5, 50 mM sodium chloride, 0.1% (w/v) bovine serum albumin and 5 mM dithiothreitol (total volume […]). The reaction was started by addition of the enzyme and carried out in microtiter plates at 25° C. for 60 minutes. The reactions are stopped by addition of NaOH. The enzyme activity was determined by measurement of the absorbance at 405 nm with appropriate corrections for absorbance at 405 nm of the compounds and p-nitrophenyl phosphate. The data are analyzed using nonlinear regression fit to classical Michaelis Menten enzyme kinetic models. Inhibition is expressed as Ki values in μM.

Ki [µM]	Compound
100	O=C(O)C(=O)Nc1scc(-c2ccccc2)c1C(=O)O [Example 4, 2-(Oxalyl-amino)-4-phenyl-thiophene-3-carboxylic acid]
200	Cc1[nH]cc(NC(=O)C(=O)O)c1C(=O)O [Example 1, 2-Methyl4-(oxalyl-amino)-1H-pyrrole-3-carboxylic acid]

Tested on: not given
Experiment: not given
Conditions: not given

Compound	melting point
O=C(O)C(=O)Nc1sc(Cc2ccccc2)cc1C(=O)O [Example 17, 2-(Oxalyl-amino)-5-(phenyl-methyl)thiophene-3-carboxylic acid]	230 to 231 °C
O=C(O)C(=O)Nc1sc(-c2ccccc2)cc1C(=O)O [Example 19, 2-(Oxalyl-amino)-5-phenyl-thiophene-3-carboxylic acid]	238 to 240 °C
O=C(O)C(=O)Nc1scc(-c2ccccc2)c1C(=O)O (hydrate or solvate) [Example 4, 2-(Oxalyl-amino)-4-phenyl-thiophene-3-carboxylic acid]	196 to 198 °C
O=C(CN1C(=O)c2ccccc2C1=O)NCc1cc(C(=O)O)c(NC(=O)C(=O)O)s1 [Example 41, 5-((2-(1,3-Dioxo-1.3-dihydro-isoindol-2-yl)-acetylamino)-methyl)-2-(oxalyl-amino)-thiophene-3-carboxylic acid]	243 to 244 °C (dec.)

Second part, the molecule after the results:

melting point	Compound
215 °C (dec.)	COc1ccc(Oc2ccc(-c3cc(NC(=O)C(=O)O)c(C(=O)O)s3)cc2)cc1 (hydrate or solvate) [Example 14, 5-(4-(4-Methoxy-phenoxy)-phenyl)-3-(oxalyl-amino)-thiophene-2-carboxylic acid]
189 to 191 °C	O=C(O)C(=O)Nc1nn(Cc2ccccc2)cc1C(=O)O (hydrate or solvate) [Example 2, 1-Benzyl-3-(oxalyl-amino)-1H-pyrazole-4-carboxylic acid]
> 250 °C	O=C(O)C(=O)Nc1scc(C2CCCCC2)c1C(=O)O (hydrate or solvate) [Example 3, 4-Cyclohexyl-2-(oxalyl-amino)-thiophene-3-carboxylic acid]
